One experiment concerns the target BcsA-Arg580Ala complex. The experiment is described as follows: Isothermal titration calorimetry, c-di-GMP into BcsA-R580A complex. Format: binding, Rhodobacter sphaeroides. To be noted: BcsA-R580A in 1 mM LFCE14, 25° C.; read-out: Kd of c-di-GMP (ITC). The procedure: (§1) FIG. 23A-23B (also referred to as Example 2, Supplementary FIG. 5): Cellulose synthesis activity of BcsA mutants and c-di-GMP binding. (FIG. 23A) Cellulose synthesis assays were performed in inverted membrane vesicles and proteoliposomes as described in the Experimental Procedures. The amount of ^3H-glucose-labeled cellulose produced by each mutant is quantified and graphed. 1 μl of IMV's were used for each mutant. For PL assays, the protein concentrations were matched based on UV absorbance and SDS-PAGE followed by Coomassie staining. The apparent lower activity of the R580A mutant may be due to differences in the relative orientation of the enzyme in the PLs or its overall stability. +/−: Experiments performed in the presence and absence of 30 μM c-di-GMP. All data represent the means±SD for 3 technical replicates. (FIG. 23B) Binding of c-di-GMP to the BcsA-R580A mutant. The ability of the R580A mutant to bind c-di-GMP was assessed using ITC.
(§2) The protein was purified in 1 mM LFCE14 as described above. Measurements were carried out at 25° C. in a MicroCal iTC200 system (GE Healthcare) with 250 μl of BcsA-B in the cell at 9.3 μM for WT and 11 μM for the BcsA-Arg580Ala complex and 400 μM c-di-GMP in the syringe. An initial 0.5 μl injection was followed by 39 1 μl injections spaced 180 s apart with stirring at 700 rpm. The data were fit using Origin 7.0 as provided by the manufacturer.

Experiment [1] addresses T1, Rhodobacter sphaeroides BcsA-B complex (cellulose synthase), wild type, BcsA SEQ ID NO: 1, BcsB SEQ ID NO: 3 (Cereibacter sphaeroides, UniProt Q3J125).
T1 construct: pETDuet, E. coli C43; purified, reconstituted in nanodiscs, proteoliposomes or detergent
T1 sequence (Q3J125 1-788): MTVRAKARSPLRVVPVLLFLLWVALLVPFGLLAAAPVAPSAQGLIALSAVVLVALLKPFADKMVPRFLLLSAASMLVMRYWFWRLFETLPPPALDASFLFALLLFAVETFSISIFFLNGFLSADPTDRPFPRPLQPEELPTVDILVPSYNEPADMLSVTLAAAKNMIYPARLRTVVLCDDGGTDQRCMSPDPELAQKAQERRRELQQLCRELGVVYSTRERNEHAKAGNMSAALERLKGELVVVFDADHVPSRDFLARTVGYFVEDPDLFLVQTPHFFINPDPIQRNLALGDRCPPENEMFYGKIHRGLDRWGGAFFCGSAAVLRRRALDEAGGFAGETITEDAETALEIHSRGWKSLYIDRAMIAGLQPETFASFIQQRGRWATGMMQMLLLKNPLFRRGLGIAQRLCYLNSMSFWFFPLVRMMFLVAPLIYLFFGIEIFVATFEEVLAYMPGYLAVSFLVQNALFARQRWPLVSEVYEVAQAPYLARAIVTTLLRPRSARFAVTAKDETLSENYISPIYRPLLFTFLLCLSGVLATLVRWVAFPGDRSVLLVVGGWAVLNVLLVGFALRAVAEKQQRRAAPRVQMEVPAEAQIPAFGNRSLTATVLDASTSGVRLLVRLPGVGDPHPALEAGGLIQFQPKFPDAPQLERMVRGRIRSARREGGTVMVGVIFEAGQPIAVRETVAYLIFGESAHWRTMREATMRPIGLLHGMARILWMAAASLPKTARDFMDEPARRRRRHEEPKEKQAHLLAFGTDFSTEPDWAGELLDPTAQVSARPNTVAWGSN
T1 sequence (Q3J126 21-725 partner): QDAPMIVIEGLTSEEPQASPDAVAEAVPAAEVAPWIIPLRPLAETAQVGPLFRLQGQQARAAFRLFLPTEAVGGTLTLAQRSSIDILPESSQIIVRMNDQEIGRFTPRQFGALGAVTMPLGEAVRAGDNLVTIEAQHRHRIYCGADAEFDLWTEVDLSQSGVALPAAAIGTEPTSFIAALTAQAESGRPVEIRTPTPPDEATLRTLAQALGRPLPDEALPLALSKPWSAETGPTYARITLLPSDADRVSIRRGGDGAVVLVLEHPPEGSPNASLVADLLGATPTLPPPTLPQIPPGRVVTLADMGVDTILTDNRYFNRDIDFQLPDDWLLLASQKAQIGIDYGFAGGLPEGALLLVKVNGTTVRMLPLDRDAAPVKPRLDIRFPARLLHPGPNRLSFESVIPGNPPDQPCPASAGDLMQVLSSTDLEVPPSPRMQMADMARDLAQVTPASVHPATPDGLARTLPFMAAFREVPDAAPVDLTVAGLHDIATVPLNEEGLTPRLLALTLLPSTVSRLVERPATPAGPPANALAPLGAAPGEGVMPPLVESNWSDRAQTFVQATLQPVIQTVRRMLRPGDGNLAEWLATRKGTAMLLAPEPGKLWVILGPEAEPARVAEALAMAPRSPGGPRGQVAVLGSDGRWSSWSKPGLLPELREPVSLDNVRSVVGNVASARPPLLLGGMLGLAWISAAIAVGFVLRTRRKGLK
In words: Enzyme-coupled (PK/LDH, NADH oxidation) cellulose synthase assay, ND-reconstituted BcsA-B. Format: biochemical. The note with it: titration of UDP-Glc at increasing c-di-GMP concentrations.

Experiment [2] has as its target T2, Rhodobacter sphaeroides BcsA-B complex, wild type (WT), BcsA SEQ ID NO: 1, BcsB SEQ ID NO: 3 (Cereibacter sphaeroides, UniProt Q3J125).
T2 construct: E. coli; purified in LFCE14 detergent for ITC
T2 sequence (Q3J125 1-788): T1 sequence (Q3J125 1-788)
T2 sequence (Q3J126 21-725 partner): T1 sequence (Q3J126 21-725 partner)
In words: Isothermal titration calorimetry, c-di-GMP binding to wild type BcsA-B. To be noted: ITC, 1 mM LFCE14, 25° C. On the procedure: as §1, §2

For experiment [3], the target named is T3, Rhodobacter sphaeroides BcsA-B complex, BcsA variant R580A (Arg580Ala; parent BcsA SEQ ID NO: 1), BcsB SEQ ID NO: 3 (Cereibacter sphaeroides, UniProt Q3J125, R580A). Format: biochemical. The note with it: c-di-GMP more than 50-fold above its dissociation constant.
T3 sequence (Q3J125 entry or part of it R580A, one chain of several): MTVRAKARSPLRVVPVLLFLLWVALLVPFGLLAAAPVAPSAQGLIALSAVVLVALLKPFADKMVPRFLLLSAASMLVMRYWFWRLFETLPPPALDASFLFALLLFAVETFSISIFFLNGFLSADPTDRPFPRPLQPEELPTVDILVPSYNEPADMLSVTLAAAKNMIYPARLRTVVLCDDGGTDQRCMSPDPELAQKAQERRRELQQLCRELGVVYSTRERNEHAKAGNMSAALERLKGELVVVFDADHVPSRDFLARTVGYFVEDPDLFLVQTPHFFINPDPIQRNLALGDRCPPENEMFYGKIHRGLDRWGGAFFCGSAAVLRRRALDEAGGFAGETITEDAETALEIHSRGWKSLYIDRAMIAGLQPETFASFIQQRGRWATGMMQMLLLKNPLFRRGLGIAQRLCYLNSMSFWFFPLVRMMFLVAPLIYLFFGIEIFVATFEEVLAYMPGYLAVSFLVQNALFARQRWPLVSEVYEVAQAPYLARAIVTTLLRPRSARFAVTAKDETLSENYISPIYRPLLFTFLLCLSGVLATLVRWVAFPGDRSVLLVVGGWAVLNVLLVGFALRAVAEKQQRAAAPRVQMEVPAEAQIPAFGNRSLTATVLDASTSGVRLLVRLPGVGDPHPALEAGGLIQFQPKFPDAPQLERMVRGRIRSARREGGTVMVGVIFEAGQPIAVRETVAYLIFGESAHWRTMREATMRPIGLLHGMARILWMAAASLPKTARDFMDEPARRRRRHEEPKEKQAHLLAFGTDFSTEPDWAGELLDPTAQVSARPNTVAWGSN
For experiment [4], the target named is T3, Rhodobacter sphaeroides BcsA-B complex, BcsA variant R580A (Arg580Ala; parent BcsA SEQ ID NO: 1), BcsB SEQ ID NO: 3. The experiment is described as follows: Isothermal titration calorimetry, c-di-GMP binding to the BcsA-R580A mutant. On the procedure:
as §1, §2
(In general: ITC needs no label: the signal is the heat of the interaction.)

Broadly, the Kd is the concentration at which binding is half-saturated.

Turning to `Nc1nc2c(ncn2[C@@H]2O[C@@H]3COP(=O)(O)O[C@H]4[C@@H](O)[C@H](n5cnc6c(=O)[nH]c(N)nc65)O[C@@H]4COP(=O)(O)O[C@H]3[C@H]2O)c(=O)[nH]1` [c-di-GMP, cyclic dimeric guanosine monophosphate], the Kd at BcsA-Arg580Ala complex was 1.6 µM; in experiment [2] it was 0.4 µM; in experiment [4], 1.6 µM. The “effect of c-di-GMP on BcsA's apparent affinity for UDP-Glc” value in experiment [1] was “does not alter BcsA's apparent affinity for UDP-Glc”. Moreover, the “stimulation of cellulose biosynthesis by c-di-GMP” value in experiment [3] was “no further stimulation”. Besides, the “stoichiometry of c-di-GMP binding” value in experiment [4] (ITC, 1 mM LFCE14, 25° C.) was roughly 0.5.

(Values after US9890407B2, “Method for synthesizing cellulose in vitro” (University of Virginia Patent Foundation, priority 2013, dated 2018).)
